Test system: SW-480 colon cancer cells
Assay: SW480 colon carcinoma xenograft, intratumoral injection
Format: in vivo, nude mice
Description: The lead peptides were evaluated also in a colon carcinoma xenograft model, employing SW480 cells that harbor p53^R273H, P309S. The experiment was conducted on 15 mice, randomly divided into 3 groups: a control group treated with a cocktail of 3 ineffective peptides, a group treated with a cocktail of 3 effective pCAPs (250, 308, 325) and a group treated singly with pCAP-325. Tumors were allowed to reach visible size for 10 days before onset of treatment. […] Figures 6F, 6G show the mean weight and volume of excised tumors.
Figure 6 Effect of lead peptides on tumor progression in vivo; colon cancer xenograft model In vivo effect of the indicated peptides in a mouse xenograft model of SW-480 colon cancer cells. 10^6 cells were injected and tumors were allowed to establish for 10 days. […] D., E. - Box plot of tumor volume and weight, respectively. TEXT PRINTED IN THE PICTURE: (A) Control peptides: SW-480 colon carcinoma cells (p53^273,309): 240% | (B) pCAP mix: SW-480 colon carcinoma cells (p53^273,309): -97% | (C) pCAP-325: SW-480 colon carcinoma cells (p53^273,309): -93.6% DOUBTS OF THE COPYIST ABOUT THIS PICTURE: Panels A-C: no measure is printed with the percentages (240%, -97%, -93.6%); each stands only beside a bracket at the right end of the plot
Mice (6 weeks athymic nude) were injected subcutaneously with 2×10^5-10^6 cells into each […]. All cell lines employed in these experiments stably express a luciferase reporter gene to enable monitoring of tumor growth by live imaging. 4-18 days later, when tumors reached visible size, the mice were randomly divided into several groups: a control group, treated with either a single control peptide or a mix of 2-3 control pCAPs, and groups treated with effective peptides, either a single peptide or a mix of three peptides. Peptides were administered by intratumoral injection of 6-10μg peptide per tumor in 40μl PBS, three times a week. Tumor growth over time was measured by live imaging, using the IVIS2000 system. Exposure time was calibrated to 20 seconds. 16 images were taken over 8 minutes and peak luminescence values were taken for each tumor. Experiments were conducted until tumors reached maximal allowed size of 1cm^3, at which time were sacrificed and tumors extracted, measured and weighed.

[1] = Experiment 4, SW-480 p53^R273H,P309S
[2] = Experiment 4, SW-480 p53^R273H,P309S, excised tumors

With myr-RRIRDPRILLLHFD [pCAP-325] the “% of tumors total regression” value [1] was 20%, the “IVIS average ratio to day 0” value [1] was 6.4% and the Samples average size [2] was 0.12. It also gave a Samples average weight [2] of 0.1 and a tumor size decrease (SW480 xenograft, intratumoral three times a week, mix 2μg of each peptide or pCAP-325 6μg, live imaging) of 93.6%.
